Data published in EP3733277B1, “PATTERNED SUBSTRATE HAVING HYDROPHILIC AND HYDROPHOBIC AREAS” (Karlsruher Institut für Technologie (KIT), priority 2019, dated 2020).
pIC50: −log10 of the molar value.

System: Jurkat cells
Assay: Dose-response of doxorubicin on Jurkat cells cultured on droplet microarrays (DMA) with different surfaces or in microtiter plates; viability by Calcein AM / Propidium Iodide staining
Assay type: cell-based
Conditions: Homo sapiens
Protocol: Jurkat cells were treated with anti-cancer drug doxorubicin on DMAs containing different surfaces and coatings ((1) non-polymer surface with gelatine coating, (2) non-polymer surface without coating, (3) polymer surface with gelatine coating, which is necessary for culturing of cells on polymer, but not on non-polymer surface). Cells were cultured in 100 nL droplets volume and 100 cells per droplet on 1 mm square hydrophilic spots. Cells were incubated with drug for 24 hours. Afterwards cells were stained with Calcein AM (stains live cells) and Propidium Iodide (stains dead cells) to estimate viability of cells. DMAs were imaged using Olympus IX microscope. Image analysis was performed in Imaged software.
IC50 values were calculated in Origin software by fitting the dose-response curves shown in (a).

## COc1cccc2c1C(=O)c1c(O)c3c(c(O)c1C2=O)C[C@@](O)(C(=O)CO)C[C@@H]3O[C@H]1C[C@H](N)[C@H](O)[C@H](C)O1 [doxorubicin]
24 h, Surface: Non-polymer DMA (without coating), 100 nL droplets, 100 cells per droplet, 24 hours
  pIC50: 6.72
24 h, Surface: Non-polymer DMA / gelatin, 100 nL droplets, 100 cells per droplet, 24 hours
  pIC50: 4.45
24 h, Surface: Polymer DMA / gelatin (HEMA-EDMA polymer), 100 nL droplets, 100 cells per droplet, 24 hours
  pIC50: 3.69
Surface: Microtiter plate
  pIC50: 6.70
